Assay in all cases: NCI anticancer screen, dose series, 48 h
In test [1] the test system is HT-29.
The subject of test [2] is SF-295.
Test [3] relates to SW-620.
Test [4] concerns NCI-H23.
Test [5] has as its system HOP-62.
The test system of test [6] is SF-268.
Test [7] deals with SK-MEL-2.
Test [8] relates to UACC-257.
The test system of test [9] is UACC-62.
Test [10] concerns OVCAR-4.
Test [11] relates to HCT-15.
Test [12] has as its system RXF 393.
The subject of test [13] is TK-10.
For test [14], the system named is SNB-19.
The test system of test [15] is NCI-H522.
The subject of test [16] is SR.
The test system of test [17] is RPMI-8226.
For test [18], the system named is SNB-75.
The subject of test [19] is SK-MEL-28.
Test [20] deals with HL-60.

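Test compounds were applied to cells in 96-well plates for 48 hours at 5 doses. GI50 marks 50% less growth.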 Calls of active or inactive are those of the source. Rule as the data show it: active = GI50 up to about 1.1 µM and inactive = higher.

We go through eight molecules from ChEMBL document CHEMBL1201862, “PubChem BioAssay data set” (2004).

Take `O=C1C2CC=CCC2C(=O)N1n1c(-c2ccccc2)n[nH]c1=O` (stereo not drawn): the GI50 in test [1], in test [2], in [3], in [4], in test [5] and in test [6] was > 100 µM (inactive) throughout. Moreover, the GI50 in [7] was > 100 µM (inactive); in test [8] it was > 100 µM (inactive); in test [9], > 100 µM (inactive); in [10], > 100 µM (inactive); in test [11], greater than 100 µM; in test [12], > 100 µM (inactive). Moreover, the GI50 in test [13], in test [14], in [15], in [16] and in test [17] was > 100 µM (inactive) each time.
Take `CCOC(=O)/C=C(/C(=O)OCC)n1ccc(=O)n(Cc2cn(CCCCOC(C)=O)nn2)c1=O`: the GI50 was > 100 µM (inactive) in test [1]; > 100 µM (inactive) in [2]; 32.7 µM (inactive) in test [3]; > 100 µM (inactive) in test [4]; > 100 µM (inactive) in test [5]; > 100 µM (inactive) in test [6]. In addition, the GI50 in test [7] was > 100 µM (inactive); in [8] it was > 100 µM (inactive); in test [9], > 100 µM (inactive); in [18] it was > 100 µM (inactive); in [10], > 100 µM (inactive); in test [11], 59.4 µM. In addition, the GI50 in [12] was > 100 µM (inactive); in [13], 58.2 µM (inactive); in [19], > 100 µM (inactive); in test [14], > 100 µM (inactive); in test [15], 13.6 µM (inactive); in test [16], > 100 µM (inactive). In addition, the GI50 in test [17] was 89.3 µM (inactive).
With `CC(C)(C)c1cc(C(O)(C(F)(F)F)C(F)(F)F)c2c(c1)C(C(F)(F)F)(C(F)(F)F)OC(C(C)(C)C)N2` (stereo not drawn), the GI50 was 2.69 µM (inactive) in test [1]; 2.63 µM (inactive) in [2]; 3.21 µM (inactive) in test [3]; 2.64 µM (inactive) in test [4]; 2.55 µM (inactive) in test [7]; 2.81 µM (inactive) in test [8]. Besides, the GI50 is 3.56 µM (inactive) in test [9]; 2.56 µM (inactive) in test [18]; 6.28 µM (inactive) in [10]; 2.99 µM in [11]; 0.382 µM (active) in [12]; 3.27 µM (inactive) in test [13]. Also, the GI50 is 5.16 µM (inactive) in test [19]; 5.79 µM (inactive) in test [14]; 2.75 µM (inactive) in [15]; 2.24 µM (inactive) in test [16]; 1.95 µM (inactive) in test [17].
For `CCOC(=O)c1sc2c(C(=O)OCC)n3cc(C)cc(C)c3c2c1O`, the GI50 in test [1], in [2], in [3], in test [4], in test [6] and in test [7] was > 100 µM (inactive) in each case. Besides, the GI50 in [9] is > 100 µM (inactive); in [18], 58.7 µM (inactive); in test [10] it was > 100 µM (inactive); in test [12] it was > 100 µM (inactive); in test [13], > 100 µM (inactive); in test [19], > 100 µM (inactive). The values for the GI50 in [14], in [15] and in [16] were > 100 µM (inactive), 80.4 µM (inactive) and > 100 µM (inactive), respectively.
With `Cc1ccc2ccc(O)cc2c1`, the GI50 in test [1] is 53.6 µM (inactive); in test [2], 39.4 µM (inactive); in [20], 18.5 µM (inactive); in [3], 37 µM (inactive); in test [4] it was 37.8 µM (inactive); in test [5], > 100 µM (inactive). The GI50 was 31.8 µM (inactive) in [6]; 38.1 µM (inactive) in test [7]; 64.3 µM (inactive) in test [8]; 43.6 µM (inactive) in test [9]; 48.9 µM (inactive) in test [18]; 20.9 µM (inactive) in test [10]. Besides, the GI50 is 35.6 µM in test [11]; 44.9 µM (inactive) in test [12]; > 100 µM (inactive) in test [13]; > 100 µM (inactive) in [19]; > 100 µM (inactive) in test [14]; 19.9 µM (inactive) in test [15]. In test [17], the GI50 is 27.9 µM (inactive).
With `N#Cc1nc(CN2C(=O)c3ccccc3C2=O)oc1N`, the GI50 in [1], in test [2], in test [3], in test [5], in test [6] and in test [7] was > 100 µM (inactive) each time. For the same molecule, the GI50 in test [8] was > 100 µM (inactive); in test [18], > 100 µM (inactive); in test [10], > 100 µM (inactive); in [11] it was greater than 100 µM; in [12], > 100 µM (inactive); in test [13], > 100 µM (inactive). Also, the GI50 in [19], in [15], in [16] and in [17] was > 100 µM (inactive) each time.
In the case of `Cc1cc(N(CCC#N)CCC#N)ccc1C(/N=N/c1ccc(C(=O)O)cc1)=N\NC(=O)c1ccccc1`, the GI50 was 17.3 µM (inactive) in test [1]; 23.9 µM (inactive) in [2]; 17.7 µM (inactive) in test [4]; 32.4 µM (inactive) in test [5]; 53.8 µM (inactive) in [6]; > 100 µM (inactive) in test [7]. The GI50 is 65.2 µM (inactive) in test [8]; 39.8 µM (inactive) in test [9]; 34.3 µM (inactive) in test [18]; > 100 µM (inactive) in [10]; 20.9 µM in test [11]; 17.7 µM (inactive) in test [12]. Also, the GI50 in test [13] was > 100 µM (inactive); in [14], 50.8 µM (inactive); in test [15], 13.2 µM (inactive); in test [16] it was 6.08 µM (inactive); in test [17], > 100 µM (inactive).
On to `NS(=O)(=O)c1nnc(NS(=O)(=O)c2ccccc2C(=O)O)s1`, for which the GI50 in test [1], in [2], in [3], in [4], in [5] and in [6] was > 100 µM (inactive) each time. Also, the GI50 in test [7] was > 100 µM (inactive); in [8], > 100 µM (inactive); in test [9], > 100 µM (inactive); in test [10], > 100 µM (inactive); in test [11], greater than 100 µM; in test [12] it was > 100 µM (inactive). Also, the GI50 in [13], in test [19], in [14], in [15], in test [16] and in [17] was > 100 µM (inactive) each time.
